From patent US9067884B2, “Pyrrole compounds that modulate HSP90 activity” (Synta Pharmaceuticals Corp., priority 2008, dated 2015) come the findings set out here.

The test system of assay [1] is Hsp90. As to the kind of experiment: IC50 range of compounds of the invention for  inhibition of Hsp90 (Method 2: MV-4-11 cells, Cell Counting Kit-8). Type of assay: cell-based, human. The following applies: text: IC50 range for Her2 degradation, 72 hours, cell survival by Cell Counting Kit-8. As to the method: MV-4-11 cells (20,000 cells/well) were cultured in 96-well plates and maintained at 37° C. for several hours. The cells were treated with a compound of the invention or 17AAG (a positive control) at various concentrations and incubated at 37° C. for 72 hours. Cell survival was measured with Cell Counting Kit-8 (Dojindo Laboratories, Cat. # CK04).
A general note: Tetrazolium assays rely on reduction of a dye to a coloured formazan, in cell work by metabolically active cells.

Assay [2] has as its system Her2. As to the kind of experiment: Degradation of Her2 in BT-474 cells (Method 1, Western blot). Type of assay: cell-based, Human. Particulars: 0.5 μM, overnight. As for the experimental part: Human high-Her2 breast carcinoma BT474 (HTB-20), SK-BR-3 (HTB-30) and MCF-7 breast carcinoma (HTB-22) from American Type Culture Collection, VA, USA were grown in Dulbecco's modified Eagle's medium with 4 mM L-glutamine and antibiotics (100 IU/ml penicillin and 100 μg/ml streptomycine; GibcoBRL). To obtain exponential cell growth, cells were trypsinized, counted and seeded at a cell density of 0.5×10^6 cells/ml regularly, every 3 days. All experiments were performed on day 1 after cell passage.
BT-474 cells are treated with 0.5 μM, 2 μM, or 5 μM of 17AAG (a positive control) or 0.5 μM, 2 μM, or 5 μM of a compound of the invention overnight in DMEM medium. After treatment, each cytoplasmic sample, is prepared from 1×10^6 cells by incubation of cell lysis buffer (#9803, Cell Signaling Technology) on ice for 10 minutes. The resulting supernatant used as the cytosol fractions is dissolved with sample buffer for SDS-PAGE and run on a SDS-PAGE gel, blotted onto a nitrocellulose membrane by using semi-dry transfer. Non-specific binding to nitrocellulose is blocked with 5% skim milk in TBS with 0.5% Tween at room temperature for 1 hour, then probed with anti-Her2/ErB2 mAb (rabbit IgG, #2242, Cell Signaling) and anti-Tubulin (T9026, Sigma) as housekeeping control protein. […]
Background: A western blot detects proteins with antibodies after separation by electrophoresis.

As to `CCNC(=O)c1ccc(-c2cc(C(C)C)c(O)cc2O)n1-c1ccc(N(C)C)cc1` [Compound 3, 5-(2,4-dihydroxy-5-isopropylphenyl)-1-(4-(dimethylamino)phenyl)-N-ethyl-1H-pyrrole-2-carboxamide], the IC50 (as a rule, the concentration at which inhibition is half-maximal) in assay [1] is above 1000 nM.
For `C=CCNC1=C2C[C@@H](C)C[C@H](OC)[C@H](O)[C@@H](C)/C=C(\C)[C@H](OC(N)=O)[C@@H](OC)/C=C\C=C(/C)C(=O)NC(=CC1=O)C2=O` [Compound 17AAG, 17-allylamino-17-demethoxygeldanamycin], the “degradation of Her2” value in assay [2] is listed as “partial degradation of Her2”.
